Where no end group is shown, it is not given here.
System: Lactobacillus crispatus DSM 20356
Test: Antimicrobial assay (surviving colonies, CFU count)
Format: cell-based
Settings: peptides pre-incubated with 2 mM DTT 30 min 37 °C; 6 h with bacteria; n = 6
Method: Bacterial strains Lactobacillus crispatus DSM 20356, Lactobacillus iners CIP 105923 and Garnerella vaginalis CCUG 43336 were kindly provided by the Department of Clinical Microbiology at University Hospital Center of Liege. Lactobacillus jensenii LMG 6414 was obtained from BCCM/LMG Bacteria Collection (University of Gent, Belgium). Log-phase bacteria were grown on Columbia agar with 5% sheep blood (Becton Dickinson, Franklin Lakes, NJ, USA) at 37 °C in a humidified CO2 atmosphere (Lactobacilli) or in anaerobic jars (G. vaginalis). To analyze the antimicrobial effect of innate peptides expressed by vaginal/cervical mucosa, 5 × 10^4 colony-forming unit (CFU)/ml were mixed with different peptides (concentration range: 1–10 µg/ml) in 10 mM sodium phosphate buffer (SPB) (final volume 100 µl) and incubated for 45 min to 9 h at 37 °C. Where indicated, the peptides were incubated with 2 mM dithiothreitol (DTT) (Invitrogen, Carlsbad, CA, USA) for 30 min at 37 °C before adding the bacteria. In indicated experiments, incubation was carried out in potassium phosphate buffer (KPB) (pH: 7.4, 10 mM). The following peptides were tested: HβD1 (PeptaNova, Sandhausen, Germany), HβD2 (PeptaNova), HβD3 (PeptaNova), HβD4 (PeptaNova), HD-5 (PeptaNova), HD-6 (PeptaNova), elafin (PeptaNova), S100A7 (Abnova, Taipei City, Taiwan) and SLPI (R&D Systems, Minneapolis, MI, USA). Bacterial suspensions were then plated on Columbia Blood agar plates for 24–48 h to determine CFU. High-resolution images for each condition were taken. Colony detection and counts were finally performed using ImageJ software (NIH, Bethesda, MD, USA) and verified by manual counting.

With “HβD3: epithelial member of the defensin family, host defense peptide (PeptaNova) (GIINTLQKYYCRVRGGRCAVLSCLPKEEQIGKCSTRGRKCCRRKK; not fully specified; ends and bridges not checked; UniProt P81534 23-67, looked up)” the “antimicrobial/protective activity in reducing environment” value was “slight increase in the antibacterial activity”.

— paper PMC8885657, “HPV infection alters vaginal microbiome through down-regulating host mucosal innate peptides used by Lactobacilli as amino acid sources” (Nature Communications, 2022)
